In PubChem BioAssay AID2060910 (Molecular Pharmacology Branch, DTP, NCI, 2025):

Tested on: 242566-281-R-J2-PDC complex spheroid viability
Assay: Anticancer human tumor 242566-281-R-J2-PDC patient-derived pancreatic carcinoma cell line growth inhibition [RAS]
Details: for IC50: curve of first compound; for viability, T/C: stronger effect = lower value
Procedure, shortened: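 Agents were tested in combination matrices in half-log decrements from a top concentration at or near clinical Cmax (10 microM if undetermined). Targets were multi-cell spheroids of tumour lines plus HUVEC and MSC stromal cells.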

[1] = second compound 0.00316 µM, first compound 0.0316 µM
[2] = second compound 0.00316 µM, first compound 0.1 µM
[3] = second compound 0.00316 µM, first compound 0.316 µM
[4] = second compound 0.00316 µM, first compound 1 µM
[5] = second compound 0.01 µM, first compound 0.0316 µM
[6] = second compound 0.01 µM, first compound 0.1 µM
[7] = second compound 0.01 µM, first compound 0.316 µM
[8] = second compound 0.01 µM, first compound 1 µM
[9] = second compound 0.0316 µM, first compound 0.0316 µM
[10] = second compound 0.0316 µM, first compound 0.1 µM
[11] = second compound 0.0316 µM, first compound 0.316 µM
[12] = second compound 0.0316 µM, first compound 1 µM
[13] = second compound 0.1 µM, first compound 0.0316 µM
[14] = second compound 0.1 µM, first compound 0.1 µM
[15] = second compound 0.1 µM, first compound 0.316 µM
[16] = second compound 0.1 µM, first compound 1 µM
[17] = second compound 0.316 µM, first compound 0.0316 µM
[18] = second compound 0.316 µM, first compound 0.1 µM
[19] = second compound 0.316 µM, first compound 0.316 µM
[20] = second compound 0.316 µM, first compound 1 µM
[21] = second compound 1 µM, first compound 0.0316 µM
[22] = second compound 1 µM, first compound 0.1 µM
[23] = second compound 1 µM, first compound 0.316 µM
[24] = second compound 1 µM, first compound 1 µM
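Further: spheroids exposed to compound for 7 days before readout.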
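Wherever viability, T/C is given: 100% = DMSO vehicle control wells.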

C=CC(=O)Nc1cc(Nc2nccc(-c3cn(C)c4ccccc34)n2)c(OC)cc1N(C)CCN(C)C + C=CC(=O)N1CCN(c2nc(OCC3CCCN3C)nc3c(F)c(-c4nc(N)cc(C)c4C(F)(F)F)c(Cl)cc23)C(C)C1
IC50 (second compound 0.00316 µM): > 1 µM | IC50 (second compound 0.01 µM): > 1 µM | IC50 (second compound 0.0316 µM): > 1 µM | IC50 (second compound 0.1 µM): > 1 µM | IC50 (second compound 0.316 µM): > 1 µM | IC50 (second compound 1 µM): > 1 µM | viability, T/C (second compound 0.00316 µM, first compound 0.00316 µM): 95.1% | viability, T/C (second compound 0.00316 µM, first compound 0.01 µM): 133% | viability, T/C [1]: 82.7% | viability, T/C [2]: 74.5% | viability, T/C [3]: 80.5% | viability, T/C [4]: 85.7% | viability, T/C (second compound 0.01 µM, first compound 0.00316 µM): 97.6% | viability, T/C (second compound 0.01 µM, first compound 0.01 µM): 138% | viability, T/C [5]: 86.7% | viability, T/C [6]: 93.4% | viability, T/C [7]: 86.1% | viability, T/C [8]: 84.8% | viability, T/C (second compound 0.0316 µM, first compound 0.00316 µM): 109% | viability, T/C (second compound 0.0316 µM, first compound 0.01 µM): 121% | viability, T/C [9]: 90.7% | viability, T/C [10]: 91% | viability, T/C [11]: 79.8% | viability, T/C [12]: 78.3% | viability, T/C (second compound 0.1 µM, first compound 0.00316 µM): 105% | viability, T/C (second compound 0.1 µM, first compound 0.01 µM): 136% | viability, T/C [13]: 103% | viability, T/C [14]: 95.4% | viability, T/C [15]: 78.9% | viability, T/C [16]: 76.8% | viability, T/C (second compound 0.316 µM, first compound 0.00316 µM): 104% | viability, T/C (second compound 0.316 µM, first compound 0.01 µM): 121% | viability, T/C [17]: 96.4% | viability, T/C [18]: 79.2% | viability, T/C [19]: 95.3% | viability, T/C [20]: 87.2% | viability, T/C (second compound 1 µM, first compound 0.00316 µM): 108% | viability, T/C (second compound 1 µM, first compound 0.01 µM): 129% | viability, T/C [21]: 81% | viability, T/C [22]: 112% | viability, T/C [23]: 83.7% | viability, T/C [24]: 89.8%

CC(C)NCC(C(=O)N1CCN(c2ncnc3c2C(C)CC3O)CC1)c1ccc(Cl)cc1 (centres undefined) + C=CC(=O)N1CCN(c2nc(OCC3CCCN3C)nc3c(F)c(-c4nc(N)cc(C)c4C(F)(F)F)c(Cl)cc23)C(C)C1
IC50 (second compound 0.00316 µM): > 10 µM | IC50 (second compound 0.01 µM): > 10 µM | IC50 (second compound 0.0316 µM): > 10 µM | IC50 (second compound 0.1 µM): > 10 µM | IC50 (second compound 0.316 µM): > 10 µM | IC50 (second compound 1 µM): > 10 µM | viability, T/C [1]: 115% | viability, T/C [2]: 99.9% | viability, T/C [3]: 106% | viability, T/C [4]: 90.6% | viability, T/C (second compound 0.00316 µM, first compound 3.16 µM): 81.9% | viability, T/C (second compound 0.00316 µM, first compound 10 µM): 84.9% | viability, T/C [5]: 100% | viability, T/C [6]: 122% | viability, T/C [7]: 102% | viability, T/C [8]: 98.7% | viability, T/C (second compound 0.01 µM, first compound 3.16 µM): 91.2% | viability, T/C (second compound 0.01 µM, first compound 10 µM): 89.3% | viability, T/C [9]: 107% | viability, T/C [10]: 117% | viability, T/C [11]: 90.9% | viability, T/C [12]: 93.1% | viability, T/C (second compound 0.0316 µM, first compound 3.16 µM): 90.9% | viability, T/C (second compound 0.0316 µM, first compound 10 µM): 86.2% | viability, T/C [13]: 91.8% | viability, T/C [14]: 104% | viability, T/C [15]: 95.1% | viability, T/C [16]: 89.1% | viability, T/C (second compound 0.1 µM, first compound 3.16 µM): 87.5% | viability, T/C (second compound 0.1 µM, first compound 10 µM): 77.7% | viability, T/C [17]: 98.6% | viability, T/C [18]: 114% | viability, T/C [19]: 97.5% | viability, T/C [20]: 88% | viability, T/C (second compound 0.316 µM, first compound 3.16 µM): 88% | viability, T/C (second compound 0.316 µM, first compound 10 µM): 81.2% | viability, T/C [21]: 99.6% | viability, T/C [22]: 133% | viability, T/C [23]: 107% | viability, T/C [24]: 101% | viability, T/C (second compound 1 µM, first compound 3.16 µM): 77.6% | viability, T/C (second compound 1 µM, first compound 10 µM): 82.9%
